We go through eleven compounds from PMC10222548, “Semisynthesis, Biological Evaluation and Molecular Docking Studies of Barbatic Acid Derivatives as Novel Diuretic Candidates” (Molecules, 2023).

Broadly, the melting point is the temperature of the solid-liquid transition.

The subject of data set [1] is Na^+ transport, MDCK cells. Kind of data set: In vitro diuretic activity: Na^+ transport inhibition, Transwell chamber seeded with MDCK cells. The settings on record: for inhibition at 100 µM: Canis lupus familiaris, MDCK. It is filed as cell-based, canine. From the text: (§1) The traditional methods for screening diuretic drugs are mostly in vivo experiments with mice, which have a long experimental cycle and are not suitable for screening massive compounds. As we know, the generation and excretion of urine involve two processes: glomerular filtration and tubular reabsorption. Reabsorption refers to the process in which the renal tubular epithelial cells transport water and certain solutes from the tubular fluid (urine) partially or entirely back into the bloodstream. Then, 99% of the water in the original urine filtered by the glomerulus is reabsorbed, and the transport of Na^+ and Cl^− plays an important role in this process. Thiazide and furosemide diuretics exert their diuretic effects by inhibiting the transport of Na^+ and Cl^−, which affects the tubular reabsorption of the original urine. Based on this principle, we established a new type of cell screening model for diuretic active drugs. Madin–Darby canine kidney (MDCK) cells were inoculated into a Transwell chamber to simulate the renal tubules. This cell model could transport and absorb external NaCl, simulating the reabsorption phenomenon. […] The effectiveness of this model was confirmed by the validation of hydrochlorothiazide, which is a commercially available diuretic drug and could inhibit the transport of Na^+ and Cl^− in renal tubules.
(§2) Generally, the transport of Na^+ and Cl^− plays an important role in glomerular filtration and tubular reabsorption. […] For example, inhibition rates of transport of 6a and 6c were over 30%, and had better inhibitory ability than barbatic acid. […] When ethyl, propyl, and benzyl were substituted on R^1, the introduction of any group could not enhance the inhibitory activity of barbatic acid, such as 6h–u and 6j′–6p′.
(§3) Log-phase MDCK cells were seeded in the upper chambers of Transwell plates (4 × 10^4 cells/well), and 800 µL of complete culture medium was added to the lower chambers. After 24 h of incubation at 37 °C, the electrical resistance of the upper chamber cells was measured one by one (R = (Rcell − Rblank) × 0.04π). When the electrical resistance of the upper chamber cells reached ≥300 Ω cm^2, the upper chamber medium was removed and replaced with the drug solution. The blank group (given normal saline), the experimental group (1, 6a–6p′, 100 μmol/L), and the hydrochlorothiazide group (100 μmol/L) were set, and each well was treated with 100 µL of the corresponding solution. The cells were then further incubated for 24 h. After that, the upper and lower chamber fluids were removed, and 200 µL of NaCl solution (15 mg/mL) was added to the upper chamber, while 800 µL of DMEM was added to the lower chamber for continued incubation. At 0.5, 1, 2, and 3 h, 50 µL of the lower chamber fluid was taken and the OD values were measured using Na^+ and Cl^− detection kits. The transport inhibition rate (%) was calculated as follows: transport inhibition rate (%) = (ODblank − ODexperimental)/ODblank × 100%.

Data set [2] concerns C2O4^2− transport, MDCK cells. Kind of data set: In vitro litholytic activity: C2O4^2− transport inhibition, Transwell chamber with MDCK cells. The class given is cell-based, canine. The settings on record: Canis lupus familiaris; 100 μmol/L, MDCK cells in Transwell; mean ± SD of three replicates; read-out: Transport Inhibition Rate (%) C2O4^2−. On the procedure: (§4) On the other hand, all compounds had little inhibitory effect on Ca^2+ transport. The structure–activity relationships (SARs) were also observed. […] On the other hand, the introduction of the benzyl group to the R^1 or R^2 of barbatic acid could not lead to more promising compounds, such as 6a, 6n, 6u, 6b′, and 6i′–p′.
(§5) Logarithmic-phase DMCK cells were inoculated in the upper chamber of a Transwell plate (4 × 10^4 cells/well). Then, 800 µL of complete culture medium was added to the lower chamber, and the cells were incubated for 24 h until they adhered to the wall. The resistance value of the upper chamber cells was measured one by one at 37 °C (R = (Rcell − Rblank) × 0.04π). When the resistance value of the upper chamber cells was ≥300 Ω cm^2, the upper chamber liquid was discarded for drug administration. A control group (given physiological saline) and an experimental group (1, 6a–6p′, 100 μmol/L) were set up, and 100 µL of each drug was administered per well, followed by continued incubation for 24 h. Then, the upper and lower chamber liquids were discarded, and 200 µL of CaC2O4 (30 mmol/L) solution was added to the upper chamber, and 800 µL of PBS solution was added to the lower chamber for continued incubation. At 0.5, 1, 2, and 3 h, 50 µL of the lower chamber liquid was taken and then tested using the Ca^2+ and C2O4^2− detection kits and the following detection methods. The transport inhibition rate (%) = (ODblank − ODexperimental)/ODblank × 100%.

Data set [3] concerns Ca^2+ transport, MDCK cells. Kind of data set: In vitro litholytic activity: Ca^2+ transport inhibition, Transwell chamber with MDCK cells. The class given is cell-based, canine. The settings on record: Canis lupus familiaris, 100 μmol/L, mean ± SD of three replicates, read-out: Transport Inhibition Rate (%) Ca^2+. On the procedure:
as §4, §5

The subject of data set [4] is Cl^− transport, MDCK cells. Kind of data set: In vitro diuretic activity: Cl^− transport inhibition, Transwell chamber seeded with MDCK cells. The settings on record: Canis lupus familiaris, read-out: Transport Inhibition Rate (%) Cl^−. It is filed as cell-based, canine.
Source text: as §1, §2, §3

Data set [5] concerns MDCK cells. Kind of data set: MTT cytotoxicity assay on MDCK cells. It is filed as cell-based, canine. The settings on record: Canis lupus familiaris, 100 μmol/L, 24 h, mean ± SD of three replicates, read-out: Growth Inhibition Rate (%). How it is done: First, we used the MTT method to perform cytotoxicity of barbatic acid derivatives (1, 6a–6p′) on MDCK cells at the concentration of 100 μmol/L, and the results are shown in Table 1.
The MTT assay was used to evaluate the cytotoxicity of the target compounds on DMCK cells. Logarithmic-growth-phase DMCK cells were seeded in a 96-well plate (10^4 cells/well) and incubated in a cell culture incubator for 24 h. The culture medium was then removed and replaced with a drug-containing medium for the treatment groups (1, 6a–6p′, 100 μmol/L), normal saline for the control group, or hydrochlorothiazide (100 μmol/L) for the positive control group. Each well was treated with 100 µL of the respective solution and incubated for an additional 24 h. The culture medium was then removed and replaced with a DMEM solution containing 20 µL of MTT (5 mg/mL). After incubating for 4 h, the liquid in each well was removed and replaced with 150 µL of DMSO, which was shaken for 10 min to ensure thorough mixing. The absorbance at 490 nm was measured to determine the optical density (OD) of each well. Cell growth inhibition rate (%) = (ODBlank − ODExperimental)/ODBlank × 100%.
For orientation: Formazan colour is commonly taken as a measure of viable cells.

Where [6] appears, read: 100 μmol/L, MDCK cells in Transwell, mean ± SD of three replicates, negative = promotion, read-out: Transport Inhibition Rate (%) Na^+.
Where [7] appears, read: 100 μmol/L, MDCK cells in Transwell, mean ± SD of three replicates, negative = promotion.

Where two headings read alike, the source gives them in different places.

Take `Cc1cc(OC(=O)c2c(C)cc(OC(C)C)c(C)c2O)c(C)c(O)c1C(=O)OCC#N` [6a′, 4-((cyanomethoxy)carbonyl)-3-hydroxy-2,5-dimethylphenyl 2-hydroxy-4-isopropoxy-3,6-dimethylbenzoate]: the melting point fell in the range of 155 to 158 °C. For the same compound, the inhibition at 100 µM in data set [1] (setting [6]) is -15.8 ± 4.85%. Besides, in data set [2], the inhibition at 100 µM was -13.2 ± 1.67%. For the same compound, the inhibition at 100 µM in data set [3] was -0.91 ± 0.11%. Also, the inhibition at 100 µM in data set [4] (setting [7]) was -10 ± 1.95%. For the same compound, the inhibition at 100 µM in data set [5] was under 0%.
Compound `Cc1cc(OC(=O)c2c(C)cc(OC(C)C)c(C)c2O)c(C)c(O)c1C(=O)OCc1ccccc1` [6b′, benzyl 2-hydroxy-4-(2-hydroxy-4-isopropoxy-3,6-dimethylbenzoyloxy)-3,6-dimethylbenzoate] returned a melting point of 83 to 86 °C. For the same compound, in data set [1] (setting [7]), the “Transport Inhibition Rate (%) Na^+” value was 33.08 ± 0.35%. In data set [1] (setting [6]), the inhibition at 100 µM is over 30%. Besides, the “Na^+ transport inhibition rate at 1, 2, and 3 h” value in data set [1] (evaluated at 1, 2, and 3 h (Figure 3)) was “above 20%”. In addition, in data set [2], the inhibition at 100 µM was -20.6 ± 1.31%. Also, the inhibition at 100 µM in data set [3] is 0.73 ± 0.08%. Besides, the inhibition at 100 µM in data set [4] (setting [7]) was 15.9 ± 0.25%. Moreover, the inhibition at 100 µM in data set [5] was under 0%.
`C=CCOc1cc(C)c(C(=O)Oc2cc(C)c(C(=O)OCC)c(O)c2C)c(O)c1C` [6d′, 4-(ethoxycarbonyl)-3-hydroxy-2,5-dimethylphenyl 4-(allyloxy)-2-hydroxy-3,6-dimethylbenzoate]: the melting point lay in the range of 116 to 120 °C. In data set [1] (setting [6]), the inhibition at 100 µM is -7.24 ± 0.75%. In addition, in data set [2], the inhibition at 100 µM was found to be 0.52 ± 1.86%. The inhibition at 100 µM in data set [3] amounted to 2.04 ± 0.03%. The inhibition at 100 µM in data set [4] (setting [7]) was -5.06 ± 0.35%. In data set [5], the inhibition at 100 µM turned out to be 1.42%.
`C=CCOc1cc(C)c(C(=O)Oc2cc(C)c(C(=O)OCCC)c(O)c2C)c(O)c1C` [6e′, 3-hydroxy-2,5-dimethyl-4-(propoxycarbonyl)phenyl 4-(allyloxy)-2-hydroxy-3,6-dimethylbenzoate]: the inhibition at 100 µM was 2.79 ± 0.25% in data set [1] (setting [6]); 5.77 ± 3.15% in data set [2]; 2.04 ± 0.08% in data set [3]; -12.9 ± 0.85% in data set [4] (setting [7]); under 0% in data set [5].
`C=CCOC(=O)c1c(C)cc(OC(=O)c2c(C)cc(OCC=C)c(C)c2O)c(C)c1O` [6g′, allyl 4-(4-(allyloxy)-2-hydroxy-3,6-dimethylbenzoyloxy)-2-hydroxy-3,6-dimethylbenzoate] yielded a melting point of 110 to 113 °C. The inhibition at 100 µM in data set [1] (setting [6]) amounted to 5.29 ± 0.15%. Also, in data set [2], the inhibition at 100 µM is -11.3 ± 1.9%. Further, in data set [3], the inhibition at 100 µM came to 2.79 ± 0.13%. Besides, the inhibition at 100 µM in data set [4] (setting [7]) came out at 18.6 ± 2.2%. Further, the inhibition at 100 µM in data set [5] is under 0%.
The compound `C=CCOc1cc(C)c(C(=O)Oc2cc(C)c(C(=O)OCC#N)c(O)c2C)c(O)c1C` [6h′, allyl 4-((cyanomethoxy)carbonyl)-3-hydroxy-2,5-dimethylphenyl 4-(allyloxy)-2-hydroxy-3,6-dimethylbenzoate] yielded a melting point of 124 to 127 °C. In data set [1] (setting [6]), the inhibition at 100 µM is -14.4 ± 2.4%. Further, the inhibition at 100 µM in data set [2] amounted to 10.7 ± 1.41%. In data set [3], the inhibition at 100 µM was -0.38 ± 0.16%. Further, the inhibition at 100 µM in data set [4] (setting [7]) is 0.62 ± 0.7%. The inhibition at 100 µM in data set [5] was under 0%.
Consider `C=CCOc1cc(C)c(C(=O)Oc2cc(C)c(C(=O)OCc3ccccc3)c(O)c2C)c(O)c1C` [6i′, benzyl 4-(4-(allyloxy)-2-hydroxy-3,6-dimethylbenzoyloxy)-2-hydroxy-3,6-dimethylbenzoate], for which the melting point was in the range of 75 to 78 °C. In addition, in data set [1] (setting [6]), the inhibition at 100 µM was -12.9 ± 1.6%. In addition, the inhibition at 100 µM in data set [2] came to 11.4 ± 1.13%. The inhibition at 100 µM in data set [3] was determined as 2.68 ± 0.11%. The inhibition at 100 µM in data set [4] (setting [7]) was -8.43 ± 2.85%. In data set [5], the inhibition at 100 µM was determined as 2.43 ± 0.3%.
As to `COC(=O)c1c(C)cc(OC(=O)c2c(C)cc(OCc3ccccc3)c(C)c2O)c(C)c1O` [6j′, 3-hydroxy-4-(methoxycarbonyl)-2,5-dimethylphenyl 4-(benzyloxy)-2-hydroxy-3,6-dimethylbenzoate], the melting point fell in the range of 131 to 134 °C. Further, in data set [1] (setting [6]), the inhibition at 100 µM was -5.13 ± 0.25%. The inhibition at 100 µM in data set [2] was -1.79 ± 3.79%. The inhibition at 100 µM in data set [3] came to 0%. The inhibition at 100 µM in data set [4] (setting [7]) amounted to 0.62 ± 0.8%. Moreover, the inhibition at 100 µM in data set [5] is under 0%.
In turn, `CCOC(=O)c1c(C)cc(OC(=O)c2c(C)cc(OCc3ccccc3)c(C)c2O)c(C)c1O` [6k′, 4-(ethoxycarbonyl)-3-hydroxy-2,5-dimethylphenyl 4-(benzyloxy)-2-hydroxy-3,6-dimethylbenzoate] registered a melting point of 123 to 126 °C. In addition, the inhibition at 100 µM in data set [1] (setting [6]) was 14.1 ± 3.2%. For the same compound, the inhibition at 100 µM in data set [2] came to 10.3 ± 2.11%. Further, in data set [3], the inhibition at 100 µM was 1.34 ± 0.1%. Further, the inhibition at 100 µM in data set [4] (setting [7]) is -19.6 ± 2.4%. Moreover, in data set [5], the inhibition at 100 µM was determined as 1.45 ± 0.1%.
`CCCOC(=O)c1c(C)cc(OC(=O)c2c(C)cc(OCc3ccccc3)c(C)c2O)c(C)c1O` [6l′, 3-hydroxy-2,5-dimethyl-4-(propoxycarbonyl)phenyl 4-(benzyloxy)-2-hydroxy-3,6-dimethylbenzoate] registered a melting point of 115 to 118 °C. Moreover, the inhibition at 100 µM in data set [1] (setting [6]) was -18.2 ± 0.2%. In addition, the inhibition at 100 µM in data set [2] was 16.5 ± 4.38%. Also, in data set [3], the inhibition at 100 µM is -2.68 ± 0.39%. The inhibition at 100 µM in data set [4] (setting [7]) was -2.92 ± 2.15%. Besides, the inhibition at 100 µM in data set [5] came out at 2.11 ± 0.9%.
With `NS(=O)(=O)c1cc2c(cc1Cl)NCNS2(=O)=O` [Hyd, hydrochlorothiazide, reference compound], the inhibition at 100 µM in data set [1] (read-out: Transport Inhibition Rate (%) Na^+, 100 μmol/L, MDCK cells in Transwell, mean ± SD of three replicates, negative = promotion) was 25.1 ± 0.85%; in data set [4] (MDCK), 19.7 ± 1%; in data set [5], under 0%.
